Measurements from the supplement of paper PMC10307832.

Assays:
Test in all cases: relative viability (nuclei count vs DMSO), 5 days (fraction); higher = more cells survive
[1] = tested on: LC-2-ad
Procedure, shortened: (§1)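 Lung cancer cell lines in 1536-well plates were dosed by pin tool the day after seeding, either with one drug alone or with a fixed anchor-drug dose plus five library-drug doses (not always all listed) in √10 steps. After 5 days, cells were fixed and their nuclei stained in one step (final 0.05% Triton X-100, 1% formaldehyde, 1 ug/ml Hoechst), then counted on 4× images. Relative viability is the nuclei count in treated wells divided by that in vehicle wells. Values are medians of duplicate plates.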

[2] = tested on: COR-L23
Procedure, shortened: as §1

[3] = tested on: LU99A
Procedure, shortened: as §1

[4] = tested on: NCI-H2347
Procedure, shortened: as §1

[5] = tested on: NCI-H1651
Procedure, shortened: as §1

[6] = tested on: NCI-H1355
Procedure, shortened: as §1

[7] = tested on: EPLC-272H
Procedure, shortened: as §1

[8] = tested on: UMC-11
Procedure, shortened: as §1

[9] = tested on: HARA
Procedure, shortened: as §1

[10] = tested on: NCI-H2126
Procedure, shortened: as §1

[11] = tested on: NCI-H1993
Procedure, shortened: as §1

[12] = tested on: NCI-H650
Procedure, shortened: as §1

[13] = tested on: HOP-62
Procedure, shortened: as §1

[14] = tested on: NCI-H1915
Procedure, shortened: as §1

[15] = tested on: PC-14
Procedure, shortened: as §1

[16] = tested on: NCI-H838
Procedure, shortened: as §1

[17] = tested on: ABC-1
Procedure, shortened: as §1

[18] = tested on: NCI-H2023
Procedure, shortened: as §1

[19] = tested on: HCC-15
Procedure, shortened: as §1

[20] = tested on: NCI-H2085
Procedure, shortened: as §1

[21] = tested on: SW 1573
Procedure, shortened: as §1

Work on Nc1ccn([C@@H]2O[C@H](CO)[C@@H](O)[C@@H]2O)c(=O)n1 [Cytarabine] + COc1cc2c(Oc3ccc(NC(=O)C4(C(=O)Nc5ccc(F)cc5)CC4)cc3F)ccnc2cc1OCCCN1CCOCC1 [Foretinib] (partner 0.25 µM) yielded a relative viability ([1]; first compound 0.005 µM) of 0.899, a relative viability ([1]; first compound 0.01581 µM) of 0.823 and a relative viability ([1]; first compound 0.05 µM) of 0.839. The relative viability ([1]; first compound 0.1581 µM) was 0.62, the relative viability ([1]; first compound 0.5 µM) was 0.41 and the relative viability ([2]; first compound 0.005 µM) was 0.958. For the same molecule, the relative viability ([2]; first compound 0.01581 µM) was 0.966, the relative viability ([2]; first compound 0.05 µM) was 0.612 and the relative viability ([2]; first compound 0.1581 µM) was 0.206. For the same molecule, the relative viability ([2]; first compound 0.5 µM) was 0.137, the relative viability ([3]; first compound 0.005 µM) was 0.762 and the relative viability ([3]; first compound 0.01581 µM) was 0.773. For the same molecule, the relative viability ([3]; first compound 0.05 µM) was 0.809, the relative viability ([3]; first compound 0.1581 µM) was 0.74 and the relative viability ([3]; first compound 0.5 µM) was 0.648. It also gave a relative viability ([4]; first compound 0.005 µM) of 1.32, a relative viability ([4]; first compound 0.01581 µM) of 1.43 and a relative viability ([4]; first compound 0.05 µM) of 0.806. The relative viability ([4]; first compound 0.1581 µM) was 0.463, the relative viability ([4]; first compound 0.5 µM) was 0.343 and the relative viability ([5]; first compound 0.005 µM) was 0.769. For the same molecule, the relative viability ([5]; first compound 0.01581 µM) was 0.808, the relative viability ([5]; first compound 0.05 µM) was 0.723 and the relative viability ([5]; first compound 0.1581 µM) was 0.583. It also gave a relative viability ([5]; first compound 0.5 µM) of 0.372, a relative viability ([6]; first compound 0.005 µM) of 0.976 and a relative viability ([6]; first compound 0.01581 µM) of 0.912. It also gave a relative viability ([6]; first compound 0.05 µM) of 0.911, a relative viability ([6]; first compound 0.1581 µM) of 0.501 and a relative viability ([6]; first compound 0.5 µM) of 0.444. For the same molecule, the relative viability ([7]; first compound 0.005 µM) was 0.639, the relative viability ([7]; first compound 0.01581 µM) was 0.477 and the relative viability ([7]; first compound 0.05 µM) was 0.461. It also gave a relative viability ([7]; first compound 0.1581 µM) of 0.196, a relative viability ([7]; first compound 0.5 µM) of 0.234 and a relative viability ([8]; first compound 0.005 µM) of 0.653. For the same molecule, the relative viability ([8]; first compound 0.01581 µM) was 0.63, the relative viability ([8]; first compound 0.05 µM) was 0.45 and the relative viability ([8]; first compound 0.1581 µM) was 0.349. It also gave a relative viability ([8]; first compound 0.5 µM) of 0.261, a relative viability ([9]; first compound 0.005 µM) of 0.753 and a relative viability ([9]; first compound 0.01581 µM) of 0.496. The relative viability ([9]; first compound 0.05 µM) was 0.363, the relative viability ([9]; first compound 0.1581 µM) was 0.107 and the relative viability ([9]; first compound 0.5 µM) was 0.123. It also gave a relative viability ([10]; first compound 0.005 µM) of 1.01, a relative viability ([10]; first compound 0.01581 µM) of 1.03 and a relative viability ([10]; first compound 0.05 µM) of 1.1. The relative viability ([10]; first compound 0.1581 µM) was 0.922, the relative viability ([10]; first compound 0.5 µM) was 0.694 and the relative viability ([11]; first compound 0.005 µM) was 0.843. For the same molecule, the relative viability ([11]; first compound 0.01581 µM) was 0.889, the relative viability ([11]; first compound 0.05 µM) was 0.726 and the relative viability ([11]; first compound 0.1581 µM) was 0.485. The relative viability ([11]; first compound 0.5 µM) was 0.468, the relative viability ([12]; first compound 0.005 µM) was 0.857 and the relative viability ([12]; first compound 0.01581 µM) was 0.642. For the same molecule, the relative viability ([12]; first compound 0.05 µM) was 0.504, the relative viability ([12]; first compound 0.1581 µM) was 0.283 and the relative viability ([12]; first compound 0.5 µM) was 0.227. The relative viability ([13]; first compound 0.005 µM) was 0.904, the relative viability ([13]; first compound 0.01581 µM) was 0.875 and the relative viability ([13]; first compound 0.05 µM) was 0.45. The relative viability ([13]; first compound 0.1581 µM) was 0.137, the relative viability ([13]; first compound 0.5 µM) was 0.142 and the relative viability ([14]; first compound 0.005 µM) was 1.11. The relative viability ([14]; first compound 0.01581 µM) was 1.02, the relative viability ([14]; first compound 0.05 µM) was 1.01 and the relative viability ([14]; first compound 0.1581 µM) was 0.771. It also gave a relative viability ([14]; first compound 0.5 µM) of 0.757, a relative viability ([15]; first compound 0.005 µM) of 0.808 and a relative viability ([15]; first compound 0.01581 µM) of 0.914. It also gave a relative viability ([15]; first compound 0.05 µM) of 1.02, a relative viability ([15]; first compound 0.1581 µM) of 0.536 and a relative viability ([15]; first compound 0.5 µM) of 0.349. For the same molecule, the relative viability ([16]; first compound 0.005 µM) was 1.13, the relative viability ([16]; first compound 0.01581 µM) was 1.08 and the relative viability ([16]; first compound 0.05 µM) was 0.939. The relative viability ([16]; first compound 0.1581 µM) was 0.486, the relative viability ([16]; first compound 0.5 µM) was 0.301 and the relative viability ([17]; first compound 0.005 µM) was 0.997. For the same molecule, the relative viability ([17]; first compound 0.01581 µM) was 1.14, the relative viability ([17]; first compound 0.05 µM) was 1.06 and the relative viability ([17]; first compound 0.1581 µM) was 1.01. The relative viability ([17]; first compound 0.5 µM) was 0.63, the relative viability ([18]; first compound 0.005 µM) was 0.535 and the relative viability ([18]; first compound 0.01581 µM) was 0.502. The relative viability ([18]; first compound 0.05 µM) was 0.158, the relative viability ([18]; first compound 0.1581 µM) was 0.101 and the relative viability ([18]; first compound 0.5 µM) was 0.0682. It also gave a relative viability ([19]; first compound 0.005 µM) of 0.905, a relative viability ([19]; first compound 0.01581 µM) of 1.05 and a relative viability ([19]; first compound 0.05 µM) of 0.996. For the same molecule, the relative viability ([19]; first compound 0.1581 µM) was 0.77, the relative viability ([19]; first compound 0.5 µM) was 0.706 and the relative viability ([20]; first compound 0.005 µM) was 0.994. It also gave a relative viability ([20]; first compound 0.01581 µM) of 0.847, a relative viability ([20]; first compound 0.05 µM) of 0.75 and a relative viability ([20]; first compound 0.1581 µM) of 0.555. For the same molecule, the relative viability ([20]; first compound 0.5 µM) was 0.475, the relative viability ([21]; first compound 0.005 µM) was 0.929 and the relative viability ([21]; first compound 0.01581 µM) was 0.688. For the same molecule, the relative viability ([21]; first compound 0.05 µM) was 0.881, the relative viability ([21]; first compound 0.1581 µM) was 0.464 and the relative viability ([21]; first compound 0.5 µM) was 0.202.
